Test results: patent US9770026B2, “Substituted pyrimidine compound and uses thereof” (Shenyang Sinochem Agrochemicals R&D Co., Ltd., priority 2012, dated 2017)

How the values were obtained:
cucumber downy mildew = assay: protectant activity in vivo against cucumber downy mildew
[1] = test system: Green peach aphids (Myzus Persicae Sulzer); assay: bioactivity test against green peach aphid, airbrush foliar spray; assay type: in vivo; conditions: for control (test results against green peach aphid): death rate after 48 hrs
How it was run: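 Aphids (15-30 per cabbage leaf disc) on moist filter paper were airbrush-sprayed at 10 psi, 0.5 mL, with compound from acetone:methanol (1:1) diluted in water with 0.1% tween 80. Held at 25±1 C, 60±5% RH; survivors counted after 48 hrs to give death rates.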

corn rust = assay: protectant activity in vivo against corn rust
Diamond back moth = assay: insecticidal activity against diamond back moth, airbrush spray; assay type: in vivo; conditions: for control (test results against diamond back moth): 600 ppm, mortality after 72 hrs
Protocol: (§1) Compounds were dissolved in mixed solvent (acetone:methanol=1:1), and diluted to required concentration with water containing 0.1% of tween 80.
(§2) Diamond back moth, armyworm, peach aphid and carmine spider mite were used as targets and the method of spraying by airbrush was used for determination of insecticidal biassays.
(§3) The method of spraying by airbrush: The cabbage leaves were made into plates of 2 cm diameter by use of punch. A test solution (0.5 ml) was sprayed by airbrush at the pressure of 0.7 kg/cm^2 to both sides of every plate. 10 Second instar larvae were put into the petri-dishes after the leaf disc air-dried and 3 replicates were set for each treatment. Then the insects were maintained in observation room (25° C., 60˜70% R.H.). Scores were conducted and mortalities were calculated after 72 hrs.

wheat powdery mildew = assay: protectant activity in vivo against wheat powdery mildew
carmine spider mite = assay: bioactivity test against carmine spider mite, airbrush spray; assay type: in vivo; conditions: for control against carmine spider mite: mortality after 72 hrs
Protocol: as §1, §2
The method: Broadbean shoots with two true leaves in pot were taken, the healthy adults of carmine spider mite were inoculated to the leaves. The adults were counted and then sprayed with airbrush at the pressure of 0.7 kg/cm^2 and at dose of 0.5 ml. 3 replicates were set for each treatment. And then they were maintained in standard observation room. Scores were conducted and mortalities were calculated after 72 hrs.

armyworm = assay: bioactivity test against armyworm, airbrush spray; assay type: in vivo; conditions: mortality after 72 h
Protocol: as §1, §2
as §3, with “corn” for “cabbage”, “(25 °C,” for “(25° C.,”, “h.” for “hrs.”

Structure (SMILES): FC(F)(F)c1ccc(Oc2ccc(CCNc3cc(Cl)ncn3)cc2)nc1 [CK69, reference compound]
- pest or weed control at 25 µg/mL (cucumber downy mildew; Cucumis sativus, 168 h, read-out: control effect against cucumber downy mildew (%), 25 mg/L, protectant activity): 50%
- pest or weed control at 50 µg/mL (cucumber downy mildew; Cucumis sativus, 168 h, read-out: control effect against cucumber downy mildew (%), 50 mg/L, protectant activity): 98%
- pest or weed control at 100 µg/mL (cucumber downy mildew; Cucumis sativus, 168 h, read-out: control effect against cucumber downy mildew (%), 100 mg/L, protectant activity): 100%
- pest or weed control at 400 µg/mL (cucumber downy mildew; Cucumis sativus, 168 h, read-out: control effect against cucumber downy mildew (%), 400 mg/L, protectant activity): 100%
- pest or weed control at 10 µg/mL ([1]; Myzus persicae, foliar, 48 h, 10 mg/L, contrastive test, read-out: Insecticidal activity against peach aphid (%)): 70%
- pest or weed control at 100 µg/mL ([1]; Myzus persicae, foliar, 48 h, 100 mg/L, contrastive test, read-out: Insecticidal activity against peach aphid (%)): 100%
- pest or weed control at 600 µg/mL ([1]; Myzus persicae, foliar, 48 h, 600 mg/L, contrastive test, read-out: Insecticidal activity against peach aphid (%)): 100%
- pest or weed control at 6.25 µg/mL (corn rust; Zea mays, 168 h, read-out: control effect against corn rust (%), 6.25 mg/L, protectant activity): 0%
- pest or weed control at 25 µg/mL (corn rust; Zea mays, 168 h, read-out: control effect against corn rust (%), 25 mg/L, protectant activity): 50%
- pest or weed control at 100 µg/mL (corn rust; Zea mays, 168 h, read-out: control effect against corn rust (%), 100 mg/L, protectant activity): 90%
- pest or weed control at 400 µg/mL (corn rust; Zea mays, 168 h, read-out: control effect against corn rust (%), 400 mg/L, protectant activity): 100%
- pest or weed control at 10 µg/mL (Diamond back moth; 72 h, 10 mg/L): 0%
- pest or weed control at 100 µg/mL (Diamond back moth; 72 h, 100 mg/L): 5%
- pest or weed control at 600 µg/mL (Diamond back moth; 72 h, 600 mg/L): 100%
- pest or weed control at 6.25 µg/mL (wheat powdery mildew; Triticum aestivum, 168 h, read-out: control effect against wheat powdery mildew (%), 6.25 mg/L, protectant activity): 0%
- pest or weed control at 25 µg/mL (wheat powdery mildew; Triticum aestivum, 168 h, read-out: control effect against wheat powdery mildew (%), 25 mg/L, protectant activity): 0%
- pest or weed control at 100 µg/mL (wheat powdery mildew; Triticum aestivum, 168 h, read-out: control effect against wheat powdery mildew (%), 100 mg/L, protectant activity): 0%
- pest or weed control at 400 µg/mL (wheat powdery mildew; Triticum aestivum, 168 h, read-out: control effect against wheat powdery mildew (%), 400 mg/L, protectant activity): 100%
- pest or weed control at 10 µg/mL (carmine spider mite; Tetranychus cinnabarinus, 72 h, 10 mg/L, contrastive test, read-out: Insecticidal activity against carmine spider mite (% )): 4%
- pest or weed control at 100 µg/mL (carmine spider mite; Tetranychus cinnabarinus, 72 h, 100 mg/L, contrastive test, read-out: Insecticidal activity against carmine spider mite (% )): 100%
- pest or weed control at 600 µg/mL (carmine spider mite; Tetranychus cinnabarinus, 72 h, 600 mg/L, contrastive test, read-out: Insecticidal activity against carmine spider mite (% )): 100%

Structure (SMILES): Cc1ncnc(NCCc2ccc(Oc3ccc(Cl)nn3)cc2)c1Br [Compound I-4121]
- control (test results against green peach aphid) ([1]; 10 ppm): 100%
- control (test results against green peach aphid) ([1]; 100 ppm): 100%
- control (test results against green peach aphid) ([1]; 600 ppm): 100%
- protectant activity against corn rust in vivo (corn rust; 400 ppm): 100%
- control (test results against diamond back moth) (Diamond back moth): 100%
- control (test results against armyworm) (armyworm; 600 ppm): 100%
- protectant activity against wheat powdery mildew in vivo (wheat powdery mildew; 400 ppm): 100%

Structure (SMILES): CCc1ncnc(NCCc2ccc(Oc3ccc(C(F)(F)F)cn3)cc2)c1Cl [Compound I-6741]
- control (test results against green peach aphid) ([1]; 5 ppm): 100%
- control (test results against green peach aphid) ([1]; 10 ppm): 100%
- control (test results against green peach aphid) ([1]; 100 ppm): 100%
- control (test results against green peach aphid) ([1]; 600 ppm): 100%
- protectant activity against corn rust in vivo (corn rust; 100 ppm): 100%
- protectant activity against corn rust in vivo (corn rust; 400 ppm): 100%
- control (test results against armyworm) (armyworm; 100 ppm): 100%
- control (test results against armyworm) (armyworm; 600 ppm): 100%
- protectant activity against wheat powdery mildew in vivo (wheat powdery mildew; 100 ppm): 100%
- protectant activity against wheat powdery mildew in vivo (wheat powdery mildew; 400 ppm): 100%
- Insecticidal activity against carmine spider mite (% ) (carmine spider mite; 10 mg/L, contrastive test): 85%
- Insecticidal activity against carmine spider mite (% ) (carmine spider mite; 100 mg/L, contrastive test): 100%
- Insecticidal activity against carmine spider mite (% ) (carmine spider mite; 600 mg/L, contrastive test): 100%
- control against carmine spider mite (carmine spider mite; 100 ppm): 100%
- control against carmine spider mite (carmine spider mite; 600 ppm): 100%

Structure (SMILES): Cc1ncnc(NCCc2ccc(Oc3ccc(C(F)(F)F)cc3Cl)cc2)c1Cl [II-154]
- protectant activity against cucumber downy mildew in vivo (cucumber downy mildew; 400 ppm): 100%
- control (test results against green peach aphid) ([1]; 100 ppm): 100%
- control (test results against green peach aphid) ([1]; 600 ppm): 100%
- control effect against corn rust (%) (corn rust; 1.6 mg/L, protectant activity): 50%
- control effect against corn rust (%) (corn rust; 6.25 mg/L, protectant activity): 100%
- control effect against corn rust (%) (corn rust; 25 mg/L, protectant activity): 100%
- control effect against corn rust (%) (corn rust; 100 mg/L, protectant activity): 100%
- control effect against corn rust (%) (corn rust; 400 mg/L, protectant activity): 100%
- protectant activity against corn rust in vivo (corn rust; 6.25 ppm): 100%
- protectant activity against corn rust in vivo (corn rust; 25 ppm): 100%
- protectant activity against corn rust in vivo (corn rust; 100 ppm): 100%
- protectant activity against corn rust in vivo (corn rust; 400 ppm): 100%
- control (test results against diamond back moth) (Diamond back moth): 100%
- protectant activity against wheat powdery mildew in vivo (wheat powdery mildew; 100 ppm): 100%
- protectant activity against wheat powdery mildew in vivo (wheat powdery mildew; 400 ppm): 100%
- control against carmine spider mite (carmine spider mite; 100 ppm): 100%
- control against carmine spider mite (carmine spider mite; 600 ppm): 100%

Structure (SMILES): CCc1ncnc(NCCc2ccc(Oc3ccc(Cl)cc3Cl)cc2)c1Cl [II-299]
- protectant activity against cucumber downy mildew in vivo (cucumber downy mildew; 100 ppm): 100%
- protectant activity against cucumber downy mildew in vivo (cucumber downy mildew; 400 ppm): 100%
- control (test results against green peach aphid) ([1]; 100 ppm): 100%
- control (test results against green peach aphid) ([1]; 600 ppm): 100%
- protectant activity against corn rust in vivo (corn rust; 100 ppm): 100%
- protectant activity against corn rust in vivo (corn rust; 400 ppm): 100%
- control (test results against armyworm) (armyworm; 600 ppm): 100%
- protectant activity against wheat powdery mildew in vivo (wheat powdery mildew; 400 ppm): 100%
- Insecticidal activity against carmine spider mite (% ) (carmine spider mite; 10 mg/L, contrastive test): 72%
- Insecticidal activity against carmine spider mite (% ) (carmine spider mite; 100 mg/L, contrastive test): 100%
- Insecticidal activity against carmine spider mite (% ) (carmine spider mite; 600 mg/L, contrastive test): 100%
- control against carmine spider mite (carmine spider mite; 100 ppm): 100%
- control against carmine spider mite (carmine spider mite; 600 ppm): 100%
